Reference: the NIST ThermoML archive (doi:10.1016/j.tca.2010.01.019)

Conditions: Crystal, Calculated from knudsen effusion weight loss

CC(C)(C)c1ccc2c(c1)-c1nc-2nc2[n-]c(nc3nc(nc4[n-]c(n1)c1ccc(C(C)(C)C)cc41)-c1ccc(C(C)(C)C)cc1-3)c1ccc(C(C)(C)C)cc21.[Cu+2] [copper tetra-4-tert-butylphthalocyanine]
Conditions | vapor or sublimation pressure [kPa]
587 K | 4.737e-06
604 K | 1.852e-05
620 K | 5.892e-05
640 K | 0.0001549
656 K | 0.0004
679 K | 0.0008741
696 K | 0.002084
